From patent US8546443B2, “Benzylic oxindole pyrimidines” (Boehringer Ingelheim International GmbH, priority 2010, dated 2013)

How the values were obtained:
[1] = system: TC-71 (Ewing's sarcoma) cells; experiment: Cell proliferation assay, TC-71 (Alamar Blue); format: cell-based; conditions: 72 h with compound, EC50 ranges as class symbols
Description: Cell Proliferation Assays
Compounds were tested for their anti-proliferative effects in the TC-71 (Ewing's sarcoma) and HCT 116 (colorectal carcinoma) cancer cell lines in vitro. Published scientific data has described that interference with the Insulin-like Growth Factor-1 Receptor (IGF-1R) signaling pathway reduces the proliferation of TC-71 cells. Therefore TC-71 cells served as a positive control cell line for monitoring the activity of compounds against IGF-1R-mediated cell proliferation. […] Therefore the HCT 116 cell line served as a negative control.
2000 TC-71 cells or 1000 HCT 116 cells were seeded per well in 180 μL IMDM+10% foetal calf serum (FCS)+ penicillin/streptomycin into 96-well microtitre plates. The plates were placed in a cell culture incubator (37° C. in a humidified atmosphere of […]/5 CO2) overnight. The following day, serial dilutions of compounds, prepared in duplicates, were transferred onto the cell layers (controls without compound). The cells were cultivated for a further 72 h in the cell culture incubator. 20 μL of Alamar Blue™ (Serotec Ltd, Düsseldorf, Germany) was added to each well and the plates incubated for 7 h in the cell culture incubator. Fluorescence (extinction wavelength of 544 nm and emission at 590 nm) was then measured and the normalized data fitted by iterative calculation with a sigmoidal curve analysis program (Graph Pad Prism) with a variable Hill slope to determine the IC50 values.

[2] = target: T1, cytoplasmic kinase domain of human IGF-1R (IGF-1R-GST) (Homo sapiens, UniProt P08069); experiment: Insulin-like growth factor-1 receptor (IGF-1R) kinase assay (DELFIA); format: biochemical; conditions: IGF-1R-GST kinase activity, read-out: IGF1R IC50
T1 construct: cytoplasmic kinase domain of human IGF-1R (amino acids 964-1370); GST (glutathione-S-transferase); made in house; host or cells: High Five insect cells (Invitrogen)
T1 sequence (P08069 964-1367 limits assumed): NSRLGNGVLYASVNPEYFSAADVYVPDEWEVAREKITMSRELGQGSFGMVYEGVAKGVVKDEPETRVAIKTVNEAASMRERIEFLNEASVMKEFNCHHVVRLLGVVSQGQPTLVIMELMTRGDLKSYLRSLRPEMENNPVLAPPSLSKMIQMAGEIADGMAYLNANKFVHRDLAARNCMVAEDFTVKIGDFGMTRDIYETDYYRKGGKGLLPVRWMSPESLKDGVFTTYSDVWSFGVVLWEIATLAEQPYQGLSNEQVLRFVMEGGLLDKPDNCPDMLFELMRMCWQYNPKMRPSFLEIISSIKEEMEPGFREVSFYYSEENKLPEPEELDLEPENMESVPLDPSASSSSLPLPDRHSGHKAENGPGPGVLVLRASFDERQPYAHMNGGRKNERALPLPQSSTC
Procedure, shortened: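 GST-tagged IGF-1R cytoplasmic kinase domain phosphorylates pEY with biotinylated pEY for 40 min at RT; EDTA stop. Product captured on streptavidin, detected with europium anti-phosphotyrosine antibody by DELFIA time-resolved fluorescence; IC50 from inhibition curves.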

SMILES	EC50 [1] [nM]	IC50 [2] [nM]
Cc1cc(C2CCN(CC(C)(C)O)CC2)c(C)cc1Nc1ncc(C(F)(F)F)c(NCc2cccc3c2C(C)(C)C(=O)N3)n1 [Example I-312]	50 to 250	27
COCC(=O)N1CCC(c2ccc(Nc3ncc(Cl)c(NCc4cccc5c4C(C)(C)C(=O)N5)n3)c(C)c2)CC1 [Example I-292]	50 to 250	5
CC1(C)C(=O)Nc2cccc(CNc3nc(Nc4ccc(C5CCCNC5)cc4)ncc3Br)c21 (racemic) [Example I-238]	50 to 250	1
COCCN1CCC(c2ccc(Nc3ncc(Cl)c(NCc4cccc5c4C(C)(C)C(=O)N5)n3)cc2C)CC1 [Example I-376]	< 50	0.6
COCCN1CCC(c2ccc(Nc3ncc(Cl)c(NCc4cccc5c4C(C)(C)C(=O)N5)n3)cc2)CC1 [Example I-204]	50 to 250	2
Cc1cc(C2CCCN(CC(C)(C)O)C2)ccc1Nc1ncc(Br)c(NCc2cccc3c2C(C)(C)C(=O)N3)n1 (racemic) [Example I-318]	< 50	0.4
Cc1cc(C2CCN(CC(N)=O)CC2)ccc1Nc1ncc(Cl)c(NCc2cccc3c2C(C)(C)C(=O)N3)n1 [Example I-220]	50 to 250	2
Cc1cc([C@@H]2CCCN(CC(C)(C)O)C2)ccc1Nc1ncc(Br)c(NCc2cccc3c2C(C)(C)C(=O)N3)n1 [Example I-320]	< 50	0.9
Cc1cc(Nc2ncc(Cl)c(NCc3cccc4c3C(C)(C)C(=O)N4)n2)c(F)cc1C1CCN(CC(C)(C)O)CC1 [Example I-337]	250 to 3000	9
CC1(C)C(=O)Nc2cccc(CNc3nc(Nc4ccc(C5CCCN(CC(O)C(F)(F)F)C5)cc4)ncc3Br)c21 (racemic) [Example I-325]	50 to 250	2
CC1(C)C(=O)Nc2cccc(CNc3nc(Nc4ccc(C5CCCN(CCO)C5)cc4)ncc3Cl)c21 (racemic) [Example I-381]	50 to 250	0.9
CC1(C)C(=O)Nc2cccc(CNc3nc(Nc4ccc(C5CCCN(CCO)C5)cc4)ncc3Br)c21 (racemic) [Example I-358]	< 50	0.7
COCCN1CCC(c2ccc(Nc3ncc(C(F)(F)F)c(NCc4cccc5c4C(C)(C)C(=O)N5)n3)c(C)c2)CC1 [Example I-352]	< 50	0.8
COc1cc(C2CCCN(CC(C)(C)O)C2)ccc1Nc1ncc(C(F)(F)F)c(NCc2cccc3c2C(C)(C)C(=O)N3)n1 (racemic) [Example I-301]	< 50	1.6
CNC1(C(=O)N2CCC(c3ccc(Nc4ncc(Cl)c(NCc5cccc6c5C(C)(C)C(=O)N6)n4)cc3)CC2)CC1 [Example I-299]	< 50	8
Cc1c(Nc2ncc(Cl)c(NCc3cccc4c3C(C)(C)C(=O)N4)n2)ccc(C2CCN(CC(C)(C)O)CC2)c1C [Example I-339]	< 50	2.1
CCc1cc(C2CCN(CC(C)(C)O)CC2)ccc1Nc1ncc(Cl)c(NCc2cccc3c2C(C)(C)C(=O)N3)n1 [Example I-378]	50 to 250	6
COCCN1CCCC(c2ccc(Nc3ncc(Br)c(NCc4cccc5c4C(C)(C)C(=O)N5)n3)c(OC)c2)C1 (racemic) [Example I-360]	< 50	0.6
COc1cc(C2CCN(CC#N)CC2)ccc1Nc1ncc(Cl)c(NCc2cccc3c2C(C)(C)C(=O)N3)n1 [Example I-374]	50 to 250	11
Cc1cc(C2CCN(CCO)CC2)ccc1Nc1ncc(Cl)c(NCc2cccc3c2C(C)(C)C(=O)N3)n1 [Example I-217]	50 to 250	1
CC1(C)C(=O)Nc2cccc(CNc3nc(Nc4ccc(C5CCN(C(=O)C6CCCN6)CC5)cc4)ncc3Br)c21 (centres unmarked) [Example I-55]	50 to 250	1
COCCN1CCC(c2ccc(Nc3ncc(Cl)c(NCc4cccc5c4C(C)(C)C(=O)N5)n3)c(C)c2)CC1 [Example I-218]	< 50	1
